# Source: patent publication US20040033595A1, “Conditionally replicating vectors for inhibiting viral infections” (priority 2001, published 2004)
# Legend:
# [1] = system: Human CD4+ T cells; test: Sensitivity of human CD4+ T cells to BG and BCNU (expansion in culture); assay type: cell-based; conditions: for dose dependence of CD4 cell killing / toxicity: increasing dose
# Protocol: CD14 depleted CD4+ cells were purified from peripheral blood with or without cytokine mobilization. […] Under appropriate conditions in the absence of […] and BCNU, CD4+ cells can be expanded up to 100 fold over 10 days in culture. Doses tested were 0, 0.2, 0.5, 2, 5, 10, 20, 30, and 40 μM BG and 0, 2, 5, 10, 20, 30, and 40 μM BCNU. A series of three experiments were performed.
# [2] = system: HIV; conditions: human, in vivo; cited from earlier work
# [3] = system: wild-type U5-HIV RNA; test: In vitro ribozyme cleavage of radiolabeled wild-type U5 HIV RNA (PAGE, autoradiography); assay type: biochemical; conditions: target to ribozyme molar ratio 1:2, 37° C. 5 min
# Protocol: (§1) To confirm the resistance to ribozyme cleavage of the crHIV vectors, in vitro transcription was performed. To accomplish this, the ribozyme sequences were cloned into the Xho I site of pBluescript KSII (Stratagene, La Jolla, Calif.). A 0.21 kilobase pair (kb) Bgl II fragment containing the mutated crHIV U5 region similarly was excised from the crHIV vector and inserted into the Bam HI site of pBluescript KSII. The resultant modified pBluescript KSII vectors were linearized with Bss HII prior to in vitro transcription. A similar plasmid expressing wild-type HIV U5 RNA (described in Myers et al. (1994), supra) was employed as a control. It was linearized with Eco RI prior to in vitro transcription.
# (§2) Radiolabeled U5 HIV RNA and ribozyme RNA were produced by in vitro transcription of the vectors, as previously described (Dropulic' et al. (1992), supra). The radiolabeled transcripts were incubated together (at a target to ribozyme molar ratio of 1:2) in 1×transcription buffer containing 40 mM Tris-HCl, pH 7.5, 6 mM MgCl2, 2 mM Spermidine, and 10 mM NaCl. The samples were heated to 65° C., and then cooled to 37° C. for 5 min prior to the addition of stop buffer solution containing 95% formamide, 20 mM EDTA, 0.05% Bromophenol Blue, and 0.05% Xylene Cyanol FF. The products' were then resolved by denaturing polyacrylamide gel electrophoresis (PAGE), and detected by autoradiography.
# [4] = system: modified U5-containing crHIV RNA; test: In vitro ribozyme cleavage of radiolabeled modified crHIV U5 RNA (PAGE, autoradiography); assay type: biochemical; conditions: target to ribozyme molar ratio 1:2, 37° C. 5 min
# Protocol: as §1, §2
compound,measurement,setting,value
"O=NN(CCCl)C(=O)NCCCl [BCNU, 1,3-bis(2-chloroethyl)-1-nitrosourea]",growth delay of CD4+ cells,[1]; BCNU alone,did not result in growth delay
same,dose dependence of CD4 cell killing / toxicity,[1],toxicity to CD4 cells increased with the BCNU dose
Nc1ccn([C@H]2CC[C@@H](CO)O2)c(=O)n1 [ddC],range virustatic in most patients,[2],0.005-0.25 mg/kg body weight
CACACAACACTGATGAGGCCGAAAGGCCGAAACGGGCACA (expressed or natural sequence) [the +115 ribozyme],cleavage of wild-type U5-HIV RNA,[3],cleavage was readily observed
same,cleavage of modified U5-containing crHIV RNA,[4],cleavage products were not detected
"Nc1nc(OCc2ccccc2)c2nc[nH]c2n1 [BG, O^6-benzylguanine]",dose dependence of CD4 cell killing / toxicity,[1],did not increase cell killing
